Assay results: publication PMC10926604, “Discovery of a novel small molecule as CD47/SIRPα and PD-1/PD-L1 dual inhibitor for cancer immunotherapy” (Cell Communication and Signaling : CCS, 2024)

Experiments:
[1] = molecular target: T1, murine CD47/SIRPα (Mus musculus, UniProt P97797); test: Cell-based blocking assay, murine CD47/SIRPα; conditions: CHO-K1-mCD47 cells, SIRPα-Fc, flow cytometry; read-out: IC50 for blocking murine CD47/SIRPα interaction
T1 construct: purchased ACRO Biosystems SIA-M5258; host or cells: CHO-K1-mCD47 cells carry the partner (lentiviral transfection)
Experimental: The CHO-K1 cell line with stable expression of CD47 and PD-1 was constructed previously by our group. SMC18 was serially diluted using PBS 7.2 (containing 1% DMSO) and incubated with 100 ng of SIRPα-Fc protein (human: SIA-H5251, mouse: SIA-M5258, ACRO Biosystems) and 50 ng of PD-L1-Fc protein (human: 10,084-H02H, mouse: 50,010-M02H, Sino Biological) on ice for 30 min. The mixture was then added to the corresponding CHO-K1-CD47 or CHO-K1-PD-1 cells and further incubated on ice for 30 min. Afterward, PE-conjugated anti-human IgG (Fc) antibody (A18272, eBioscience) was added. The mean fluorescence intensity (MFI) of the cells was detected using flow cytometry (BD FACSCalibur) and the blocking efficiency was calculated.

[2] = test system: MC38 cells; test: MTT assay, MC38 cells; format: cell-based, mouse; conditions: 100 µM; 24 h, 48 h, 72 h
Experimental: MC38 and B16-OVA cells were seeded into 96-well plates at a density of 3,000 cells per well, respectively and allowed to adhere overnight. SMC18 was added to the cells and incubated for 24 h, 48 h and 72 h, respectively. Cell viability was measured by adding MTT (3-(4, 5-dimethyl-2-thiazolyl)-2,5-diphenyl-2-H-tetrazolium bromide, 298–93-1, Sigma) solution and incubating for 4 h. The cells were then lysed by shaking with DMSO. The absorbance values at 490 nm were measured using a multi-mode microplate reader (Molecular Devices, SpectraMax iD5).
Fig S3. The Effect of SMC18 on Tumor Cell Proliferation in vitro. MC38 cells (3000 cells/well) and B16-OVA cells (3000 cells/well) were seeded in flat-bottomed 96-well plates and allowed to adhere overnight. Subsequently, the cells were starved for 8 hours in serum-free medium. SMC18 was diluted in complete culture medium and added to the wells, following which the cells were incubated for 24 h, 48 h, and 72 h. After the designated incubation periods, 20 μL of MTT solution was added to each well. Four hours later, the supernatant was aspirated, and 150 μL of DMSO was added to each well to dissolve the MTT formazan product. The plates were then shaken for 10 minutes, and absorbance was measured at 490 nm using a microplate reader.

[3] = test system: SIRPα; test: Tyrosine phosphorylation assay of SIRPα, BMDM/MC38 co-culture; format: cell-based, mouse; conditions: 50 μM, BMDMs co-cultured with MC38 cells, 30 min, Western blotting
Experimental: Murine bone marrow-derived macrophages were subjected to induction using murine GM-CSF for 7 days. Subsequently, the induced macrophages (2 × 10^6 cells/well) were co-cultured with MC38 cells (1 × 10^7 cells/well). The co-cultures were treated with PBS (negative control), SMC18 (50 μM), or anti-mouse CD47 (clone miap301, 20 μg/mL, positive control) and incubated at 37℃ for 30 min. Following this, cells were washed and lysed. Finally, cell lysates were collected for immunoprecipitation and Western blotting.
In brief, the protein samples were separated by SDS-PAGE using a 4% stacking gel and an 8 ~ 10% main gel and transferred to a polyvinylidene difluoride (PVDF) membrane. The membrane was blocked with 5% milk at room temperature for 1–2 h and then incubated with anti-SIRPα (dilution 1:1000, AB8120, Abcam), anti-PD-1 (dilution 1:200, ab52587, Abcam) or anti-Phosphotyrosine (dilution 1:1000, 05–321, Millipore) dissolved in primary antibody dilution buffer overnight at 4 °C. Then the membrane was washed and incubated with appropriate HRP-coupled goat anti-rabbit IgG (D110058, Sangon Biotech) and HRP-coupled goat anti-mouse IgG (D110087, Sangon Biotech) for 1–2 h at room temperature. Finally, the membranes were exposed using an enhanced chemiluminescence (ECL) detection kit (P1030, Applygen). Results were analyzed by ImageJ software (NIH, Bethesda, MD, United States).

[4] = test system: Jurkat cells co-cultured with CHO-K1-hPD-L1 cells; test: Co-culture assay, IL-2 secretion of Jurkat cells with CHO-K1-hPD-L1 cells; format: cell-based, human; conditions: 50 μM, co-culture with CHO-K1-hPD-L1 cells 48 h
Experimental: Jurkat cells were stimulated with 25 ng/mL of […] (PMA, 16,561–29-8, Sigma) and 1 μg/mL of phytohemag-glutinin (PHA, L8902, Sigma) or 1 μg/mL anti-human CD3 (OKT3, BioGems and 0.5 μg/mL anti-human CD28 (CD28.2, BioGems) for 24 h. Subsequently, they were co-cultured with CHO-K1-hPD-L1 cells at a ratio of 4:1 for 48 h. SMC18 (50 μΜ) and OPBP-1 peptide (100 μM) were added as experimental group and positive control group, respectively. Four hours before the end of the co-culture, protein transport inhibitor (555,029, BD Biosciences) was added. Jurkat cells were collected and stained with anti-human CD45 antibody (HI30, eBioscience) for 30 min. The cells were then fixed and stained with anti-human IL-2-APC (MQ1-17H12, eBioscience) for another 30 min. The fluorescence intensity was analyzed by flow cytometry (BD, FACSCelesta).

T1 sequence (P97797 32-373 limits assumed): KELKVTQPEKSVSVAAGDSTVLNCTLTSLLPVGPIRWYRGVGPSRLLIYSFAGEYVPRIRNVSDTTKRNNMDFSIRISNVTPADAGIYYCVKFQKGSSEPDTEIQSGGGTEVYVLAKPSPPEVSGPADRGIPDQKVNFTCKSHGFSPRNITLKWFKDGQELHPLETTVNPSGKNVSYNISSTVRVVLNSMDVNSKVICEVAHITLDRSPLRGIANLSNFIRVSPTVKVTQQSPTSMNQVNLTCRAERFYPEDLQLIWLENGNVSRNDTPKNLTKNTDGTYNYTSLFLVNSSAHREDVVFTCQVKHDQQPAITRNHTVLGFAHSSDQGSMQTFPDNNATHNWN

Cc1cc(C)cc(NS(=O)(=O)c2ccc3[nH]cc(C(=O)NCCc4ccccc4)c(=O)c3c2)c1 [SMC18]
IC50 [1]: 58.9 ± 3.2 µM | toxicity to MC38 cells (MTT) [2]: non-toxic | tyrosine phosphorylation levels of SIRPα [3]: significantly suppressed | ability of Jurkat cells to secrete IL-2 [4]: effectively restored
